# Experimental data as given in US20250206701A1.
# Values joined by “and” are separate entries in the source; they are usually repeats but may differ in a detail not shown here. Identical values can stand only once. “Also recorded” adds a separate entry of the source.
# Experiments:
# [1] = molecular target: T1, 5-HT2A receptor (Mus musculus, UniProt P35363); assay: Drug-induced Head Twitch Response (HTR) in mice; format: in vivo, C57BL/6-Elite mice; details: 1 mg/kg i.p.; for Head Twitch Response (HTR): 15-to-30-minute window post-drug, relative to vehicle
# T1 construct: tissue Charles River; host or cells: living C57BL/6-Elite mice (brain, in vivo)
# [2] = In vitro metabolic stability / psilocin release assays (liver, intestinal, serum fractions, buffer)
# [3] = Mouse PK study: plasma parent compound and psilocin metabolite after dosing of the labelled compound; details: for Plasma concentration of E(VI) / AUC0-tlast/Dose of E(VI) / Plasma concentration of psilocybin: 1 mg/kg i.v.
# [4] = molecular target: T2, 5-HT1A receptor (Homo sapiens, UniProt P08908); assay: cAMP-Glo assay of 5-HT1A receptor modulation in CHO-K1/5-HT1A/Ga15 cells; format: cell-based; details: +5-HT1A vs −5-HT1A cells, 4 mM forskolin, increasing ligand concentrations
# T2 construct: host or cells: CHO-K1 (co-expressing Ga15)
# T2 sequence (P08908 1-422): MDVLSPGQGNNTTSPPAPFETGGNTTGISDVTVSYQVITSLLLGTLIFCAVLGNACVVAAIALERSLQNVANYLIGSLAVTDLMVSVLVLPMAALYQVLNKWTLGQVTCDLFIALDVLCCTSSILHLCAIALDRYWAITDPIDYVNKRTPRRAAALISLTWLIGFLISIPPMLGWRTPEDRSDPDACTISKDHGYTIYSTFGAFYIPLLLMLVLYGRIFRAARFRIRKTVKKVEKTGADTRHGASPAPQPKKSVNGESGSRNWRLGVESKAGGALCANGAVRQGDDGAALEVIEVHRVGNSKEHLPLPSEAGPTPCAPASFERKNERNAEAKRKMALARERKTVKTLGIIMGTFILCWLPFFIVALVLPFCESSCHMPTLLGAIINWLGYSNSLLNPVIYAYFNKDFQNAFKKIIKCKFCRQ
# [5] = molecular target: T3, MAO-A (Homo sapiens, UniProt P21397); assay: SAFETYscan MAO-A enzyme assay; format: biochemical
# T3 construct: purchased Sigma
# T3 sequence (P21397 1-527): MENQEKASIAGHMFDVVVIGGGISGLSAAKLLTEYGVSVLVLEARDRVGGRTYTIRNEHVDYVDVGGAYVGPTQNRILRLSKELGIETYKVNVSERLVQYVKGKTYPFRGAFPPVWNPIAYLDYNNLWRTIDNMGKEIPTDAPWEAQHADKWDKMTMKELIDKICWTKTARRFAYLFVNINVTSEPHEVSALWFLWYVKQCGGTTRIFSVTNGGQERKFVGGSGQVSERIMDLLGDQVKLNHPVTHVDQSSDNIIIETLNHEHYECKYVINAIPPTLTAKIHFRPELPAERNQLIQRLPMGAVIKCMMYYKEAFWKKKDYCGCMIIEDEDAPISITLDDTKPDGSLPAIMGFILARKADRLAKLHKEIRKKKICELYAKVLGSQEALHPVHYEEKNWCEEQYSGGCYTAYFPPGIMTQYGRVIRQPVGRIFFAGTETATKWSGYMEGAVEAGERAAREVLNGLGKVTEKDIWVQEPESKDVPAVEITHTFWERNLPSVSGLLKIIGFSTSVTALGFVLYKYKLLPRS
# [6] = molecular target: AVPR1A (Homo sapiens, UniProt P37288); assay: SAFETYscan calcium secondary messenger assay, AVPR1A; format: cell-based
# [7] = 3 mg/kg oral, 24 h, individual mice, BLQ = below 0.2 ng/mL
# [8] = oral doses, any dose / timepoint
# T1 sequence (P35363 whole entry): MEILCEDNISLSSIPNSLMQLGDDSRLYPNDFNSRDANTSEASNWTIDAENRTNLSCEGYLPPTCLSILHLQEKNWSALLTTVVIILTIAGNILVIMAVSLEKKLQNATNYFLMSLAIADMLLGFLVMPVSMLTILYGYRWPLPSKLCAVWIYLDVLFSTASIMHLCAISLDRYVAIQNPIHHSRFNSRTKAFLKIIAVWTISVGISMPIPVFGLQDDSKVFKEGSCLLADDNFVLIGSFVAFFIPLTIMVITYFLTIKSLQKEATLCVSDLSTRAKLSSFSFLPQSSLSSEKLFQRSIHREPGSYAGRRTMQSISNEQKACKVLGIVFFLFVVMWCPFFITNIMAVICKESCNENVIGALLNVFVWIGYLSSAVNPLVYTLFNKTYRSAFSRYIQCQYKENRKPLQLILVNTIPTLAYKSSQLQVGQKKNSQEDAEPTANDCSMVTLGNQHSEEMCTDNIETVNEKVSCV
# AVPR1A, sequence (P37288 whole entry): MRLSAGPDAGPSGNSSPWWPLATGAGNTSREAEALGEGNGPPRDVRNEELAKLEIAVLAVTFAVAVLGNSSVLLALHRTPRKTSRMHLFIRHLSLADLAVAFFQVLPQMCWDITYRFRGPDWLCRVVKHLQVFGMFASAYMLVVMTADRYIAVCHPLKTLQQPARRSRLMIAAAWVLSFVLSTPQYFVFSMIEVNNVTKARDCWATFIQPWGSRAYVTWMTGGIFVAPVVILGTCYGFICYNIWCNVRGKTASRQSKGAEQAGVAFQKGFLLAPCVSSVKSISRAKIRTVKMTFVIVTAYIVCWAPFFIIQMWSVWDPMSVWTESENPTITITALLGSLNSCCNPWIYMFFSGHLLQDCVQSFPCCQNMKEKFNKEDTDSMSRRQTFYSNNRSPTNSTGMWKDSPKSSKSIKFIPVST
smiles,measurement,setting,value
CN(C)CCc1c[nH]c2cccc(OC(=O)OCc3ccccc3)c12 [B(II)],Head Twitch Response (HTR),[1],elicit head twitching
same,dissociation to psilocin,"[2]; HLM, HLS9, HIM, HIS9, AB serum, buffer control (any conditions)",did not readily dissociate to psilocin under any conditions
same,detection of parent compound in plasma after oral administration,[3]; 1 mg/kg oral,neither B(II) nor E(VI) were detected in plasma
same,Plasma concentration of psilocin,"[3]; 1 mg/kg oral, 0.25 h, mean ± SD",19.7 ± 5.50 ng/mL
same,Plasma concentration of psilocin,"[3]; 1 mg/kg oral, 0.5 h, mean ± SD",11.9 ± 2.03 ng/mL
same,Plasma concentration of psilocin,"[3]; 1 mg/kg oral, 1 h, mean ± SD",4.63 ± 0.788 ng/mL
same,Plasma concentration of psilocin,"[3]; 1 mg/kg oral, 2 h, mean ± SD",2.20 ± 0.850 ng/mL
same,Plasma concentration of psilocin,"[3]; 1 mg/kg oral, 4 h, mean ± SD",2.05 ± 0.359 ng/mL
same,Plasma concentration of psilocin,"[3]; 1 mg/kg oral, 6 h, mean ± SD",0.739 ± 0.288 ng/mL
same,Plasma concentration of psilocin,"[3]; 1 mg/kg oral, 8 h, mean ± SD",0.453 ± 0.0460 ng/mL
same,Cmax/Dose of psilocin,"[3]; 1 mg/kg oral, dose of administered compound used, mean ± SD",19.7 ± 5.50 kg·ng/mL/mg
same,Plasma concentration of psilocin,"[3]; 3 mg/kg oral, 0.25 h, mean ± SD",55.6 ± 8.67 ng/mL
same,Plasma concentration of psilocin,"[3]; 3 mg/kg oral, 0.5 h, mean ± SD",32.3 ± 4.98 ng/mL
same,Plasma concentration of psilocin,"[3]; 3 mg/kg oral, 1 h, mean ± SD",9.29 ± 3.05 ng/mL
same,Plasma concentration of psilocin,"[3]; 3 mg/kg oral, 2 h, mean ± SD",7.67 ± 0.921 ng/mL
same,Plasma concentration of psilocin,"[3]; 3 mg/kg oral, 4 h, mean ± SD",6.76 ± 2.13 ng/mL
same,Plasma concentration of psilocin,"[3]; 3 mg/kg oral, 6 h, mean ± SD",2.41 ± 0.845 ng/mL
same,Plasma concentration of psilocin,"[3]; 3 mg/kg oral, 8 h, mean ± SD",0.722 ± 0.368 ng/mL
same,AUC0-tlast/Dose of psilocin,"[3]; 3 mg/kg oral, dose of administered compound used, mean ± SD",20.3 ± 2.78 kg·ng·h/mL/mg
same,time parent compound resides in plasma post-dosing,[3]; 10 mg/kg oral,up to 4 hours
same,Plasma concentration of psilocin,"[3]; 10 mg/kg oral, 0.25 h, mean ± SD",306 ± 34.6 ng/mL
same,Plasma concentration of psilocin,"[3]; 10 mg/kg oral, 0.5 h, mean ± SD",125 ± 16.3 ng/mL
same,Plasma concentration of psilocin,"[3]; 10 mg/kg oral, 1 h, mean ± SD",49.6 ± 10.5 ng/mL
same,Plasma concentration of psilocin,"[3]; 10 mg/kg oral, 2 h, mean ± SD",20.7 ± 1.42 ng/mL
same,Plasma concentration of psilocin,"[3]; 10 mg/kg oral, 4 h, mean ± SD",31.4 ± 6.34 ng/mL
same,Plasma concentration of psilocin,"[3]; 10 mg/kg oral, 6 h, mean ± SD",11.5 ± 1.43 ng/mL
same,Plasma concentration of psilocin,"[3]; 10 mg/kg oral, 8 h, mean ± SD",6.38 ± 2.98 ng/mL
same,Cmax/Dose of psilocin,"[3]; 10 mg/kg oral, dose of administered compound used, mean ± SD",30.6 ± 3.46 kg·ng/mL/mg
same,psilocin levels / exposure compared with E(VI)-treated mice,"[3]; oral dosing, Tables 16 and 17",higher psilocin levels
CN(C)CCc1c[nH]c2cccc(OC(=O)SCc3ccccc3)c12 [E(VI)],5-HT1A receptor modulation (change in % cAMP),[4],mild receptor modulation at higher ligand concentrations
same,IC50,[5],> 10 µM
same,Head Twitch Response (HTR),[1],Elevated incidences of HTR; also recorded: elicit head twitching
same,HTR of E(VI) compared to B(II),[1]; side-by-side (FIG. 4F),elevated response
same,IC50,[6],> 10 µM
same,Plasma concentration of E(VI),"[3]; 5 min, individual mice, concentrations not considered accurate",3.20 ng/mL and 59.0 ng/mL and 11.1 ng/mL
same,Plasma concentration of E(VI),"[3]; 5 min, mean ± SD, concentrations not considered accurate",24.4 ± 30.2 ng/mL
same,Plasma concentration of E(VI),"[3]; 0.25 h, individual mice, concentrations not considered accurate",72.1 ng/mL and 110 ng/mL and 7.79 ng/mL
same,Plasma concentration of E(VI),"[3]; 0.25 h, mean ± SD, concentrations not considered accurate",63.3 ± 51.7 ng/mL
same,Plasma concentration of E(VI),"[3]; 0.5 h, individual mice, concentrations not considered accurate",13.1 ng/mL and 9.29 ng/mL and 1.03 ng/mL
same,Plasma concentration of E(VI),"[3]; 0.5 h, mean ± SD, concentrations not considered accurate",7.81 ± 6.17 ng/mL
same,Plasma concentration of E(VI),"[3]; 1 h, individual mice, concentrations not considered accurate",3.14 ng/mL and 5.84 ng/mL and No Peak
same,Plasma concentration of E(VI),"[3]; 1 h, mean, concentrations not considered accurate",4.49 ng/mL
same,Plasma concentration of E(VI),"[3]; 2 h, individual mice, values below LLOQ 1 ng/mL included",0.776 ng/mL and 0.594 ng/mL and No Peak
same,Plasma concentration of E(VI),"[3]; 2 h, mean, concentrations not considered accurate",0.685 ng/mL
same,Plasma concentration of E(VI),"[3]; 4 h, individual mice, BLQ = below 1 ng/mL",BLQ (2×) and No Peak
same,Plasma concentration of E(VI),"[3]; 6 h, individual mice, BLQ = below 1 ng/mL",No Peak (2×) and BLQ
same,Plasma concentration of E(VI),"[3]; 8 h, individual mice",No Peak
same,AUC0-tlast/Dose of E(VI),[3]; individual mice,20.4 kg·ng·h/mL/mg and 35.2 kg·ng·h/mL/mg and 3.40 kg·ng·h/mL/mg
same,AUC0-tlast/Dose of E(VI),[3]; mean ± SD,19.7 ± 15.9 kg·ng·h/mL/mg
same,detection of parent compound in plasma after oral administration,[3]; 1 mg/kg oral,neither B(II) nor E(VI) were detected in plasma
same,Plasma concentration of psilocin,"[3]; 1 mg/kg oral, 8 h, individual mice, BLQ = below 0.2 ng/mL",BLQ
same,Plasma concentration of psilocin,[3]; [7],No Peak (2×) and BLQ
same,Plasma concentration of psilocin,"[3]; 10 mg/kg oral, 24 h, individual mice, BLQ = below 0.2 ng/mL",BLQ
same,detection of parent compound in plasma after oral administration,[3]; [8],did not yield any detectable levels of E(VI); also recorded: never detected at any timepoint
CN(C)CCc1c[nH]c2cccc(O)c12 [psilocin],5-HT1A receptor modulation (change in % cAMP),[4],reduction in cAMP levels
CN(C)CCc1c[nH]c2cccc(OP(=O)(O)O)c12 [psilocybin],stability,[2]; assay buffer (enzyme-free control),stability of psilocybin was confirmed in assay buffer
same,stability and conversion to psilocin,"[2]; liver fractions (HLM, HLS9)",stable in liver fractions with no conversion to psilocin
same,Plasma concentration of psilocybin,"[3]; 0.5 h, individual mice, No Peak = no detectable compound by LC-MS",No Peak and 2.35 ng/mL and 6.21 ng/mL
same,Plasma concentration of psilocybin,"[3]; 0.5 h, mean",4.28 (n = 2) ng/mL
same,Plasma concentration of psilocybin,"[3]; 1 h, individual mice, No Peak = no detectable compound by LC-MS",No Peak (2×) and 1.21 ng/mL
same,Plasma concentration of psilocybin,"[3]; 1 h, mean",1.21 (n = 1) ng/mL
same,Plasma concentration of psilocybin,"[3]; 2 h, individual mice, No Peak = no detectable compound by LC-MS",No Peak
same,Plasma concentration of psilocybin,"[3]; 4 h, individual mice, No Peak = no detectable compound by LC-MS",No Peak
same,Plasma concentration of psilocybin,"[3]; 6 h, individual mice, No Peak = no detectable compound by LC-MS",No Peak
same,Plasma concentration of psilocybin,"[3]; 8 h, individual mice, No Peak = no detectable compound by LC-MS, bolded value considered an outlier",No Peak (2×) and 2.54 ng/mL
same,Plasma concentration of psilocin,"[3]; 1.56 mg/kg oral, 24 h, individual mice, BLQ = below 0.2 ng/mL",BLQ
same,Plasma concentration of psilocin,[3]; [7],BLQ
same,detection of parent compound in plasma after oral administration,[3]; [8],not detectable in orally administered animals at any dose
NCCc1c[nH]c2ccc(O)cc12 [serotonin],5-HT1A receptor modulation (change in % cAMP),[4],reduction in cAMP levels
N[C@@H](Cc1c[nH]c2ccccc12)C(=O)O [tryptophan],5-HT1A receptor modulation (change in % cAMP),[4],no reduction in cellular cAMP levels
